Measurements taken from patent US20230278972A1, “SUBSTITUTED HALOALKYL SULFONANILIDE HERBICIDES” (FMC Corporation, priority 2020, published 2023).

Legend:
Assay type in all cases: in vivo
[1] = test system: barnyardgrass (Echinochloa crus-galli); assay: Test A preemergence, barnyardgrass; conditions: Preemergence; for Plant response rating, Barnyardgrass: 0 to 100 scale (0 no effect, 100 complete control)
In short: (§1)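 Seeds are sown in loam mixed with sand and sprayed on the soil surface right after planting for the preemergence test. Postemergence pots are sprayed once seedlings reach 2 to 10 cm at the one- to two-leaf stage. The same surfactant-containing, non-phytotoxic solvent formulation serves both.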

[2] = test system: kochia (Bassia scoparia); assay: Test A preemergence, kochia; conditions: Preemergence; for Plant response rating, Kochia: 0 to 100 scale (0 no effect, 100 complete control)
In short: as §1

[3] = test system: ragweed (common ragweed, Ambrosia artemisiifolia); assay: Test A preemergence, ragweed; conditions: Preemergence; for Plant response rating, Ragweed: 0 to 100 scale (0 no effect, 100 complete control)
In short: as §1

[4] = test system: Ryegrass, Italian (Italian ryegrass, Lolium multiflorum); assay: Test A preemergence, Ryegrass, Italian; conditions: Preemergence; for Plant response rating, Ryegrass, Italian: 0 to 100 scale (0 no effect, 100 complete control)
In short: as §1

[5] = test system: Foxtail, Giant (giant foxtail, Setaria faberi); assay: Test A preemergence, Foxtail, Giant; conditions: Preemergence; for Plant response rating, Foxtail, Giant: 0 to 100 scale (0 no effect, 100 complete control)
In short: as §1

[6] = test system: pigweed (Amaranthus retroflexus); assay: Test A preemergence, pigweed; conditions: for Plant response rating, Pigweed: 0 to 100 scale (0 no effect, 100 complete control)
In short: (§2)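 Directed soil spray at planting gave the preemergence treatment, while foliar application to one- to two-leaf seedlings (2–10 cm) gave the postemergence one; pots held a loam and sand mixture and chemicals were carried in a non-phytotoxic solvent with surfactant.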

[7] = test system: barnyardgrass (Echinochloa crus-galli); assay: Test A postemergence, barnyardgrass; conditions: Postemergence, 0 to 100 scale (0 no effect, 100 complete control)
In short: as §2

[8] = test system: kochia (Bassia scoparia); assay: Test A postemergence, kochia; conditions: Postemergence, 0 to 100 scale (0 no effect, 100 complete control)
In short: as §1

[9] = test system: ragweed (common ragweed, Ambrosia artemisiifolia); assay: Test A postemergence, ragweed; conditions: Postemergence, 0 to 100 scale (0 no effect, 100 complete control)
In short: as §1

[10] = test system: Ryegrass, Italian (Italian ryegrass, Lolium multiflorum); assay: Test A postemergence, Ryegrass, Italian; conditions: Postemergence, 0 to 100 scale (0 no effect, 100 complete control)
In short: as §1

[11] = test system: Foxtail, Giant (giant foxtail, Setaria faberi); assay: Test A postemergence, Foxtail, Giant; conditions: Postemergence, 0 to 100 scale (0 no effect, 100 complete control)
In short: as §1

[12] = test system: pigweed (Amaranthus retroflexus); assay: Test A postemergence, pigweed; conditions: Postemergence, 0 to 100 scale (0 no effect, 100 complete control)
In short: as §1

[13] = test system: wheat (Triticum aestivum); assay: Test A postemergence, wheat; conditions: Postemergence, 0 to 100 scale (0 no effect, 100 complete control)
In short: as §2

[14] = test system: corn (Zea mays); assay: Test A postemergence, corn; conditions: Postemergence, 0 to 100 scale (0 no effect, 100 complete control)
In short: as §1

[15] = test system: blackgrass (Alopecurus myosuroides); assay: Test A postemergence, blackgrass; conditions: Postemergence, 0 to 100 scale (0 no effect, 100 complete control)
In short: as §1

[16] = test system: galium (catchweed bedstraw, Galium aparine); assay: Test A postemergence, galium; conditions: Postemergence, 0 to 100 scale (0 no effect, 100 complete control)
In short: as §2

[17] = 125 g ai/ha, visual injury on 0 to 100 scale (0 no effect, 100 complete control), approximately 10 days
[18] = 125 g ai/ha, visual injury approx. 10 days
[19] = 500 g ai/ha, visual injury vs untreated controls after approx. 10 days
[20] = 1000 g ai/ha, visual injury, approx. 10 days

Cc1cc(C)c(N(S(=O)(=O)C(F)(F)F)S(=O)(=O)C(F)(F)F)cc1-c1cc(C(C)C)nn(C)c1=O [Compound 47]
Barnyardgrass plant response rating [1, 17]: 50
Plant response rating, Barnyardgrass ([1]; 500 g ai/ha): 90
Kochia plant response rating [2, 17]: 0
Plant response rating, Kochia ([2]; 500 g ai/ha): 0
Ragweed plant response rating [3, 17]: 20
Plant response rating, Ragweed ([3]; 500 g ai/ha): 60
Ryegrass, Italian plant response rating [4, 17]: 50
Plant response rating, Ryegrass, Italian ([4]; 500 g ai/ha): 100
Foxtail, Giant plant response rating [5, 17]: 10
Plant response rating, Foxtail, Giant ([5]; 500 g ai/ha): 90
Pigweed plant response rating [6, 17]: 0
Plant response rating, Pigweed ([6]; 500 g ai/ha): 0
Plant response rating, Barnyardgrass [7, 18]: 50
Barnyardgrass plant response rating [7, 19]: 80
Plant response rating, Kochia [8, 18]: 0
Kochia plant response rating [8, 19]: 0
Plant response rating, Ragweed [9, 18]: 70
Ragweed plant response rating [9, 19]: 80
Plant response rating, Ryegrass, Italian [10, 18]: 40
Ryegrass, Italian plant response rating [10, 19]: 80
Plant response rating, Foxtail, Giant [11, 18]: 40
Foxtail, Giant plant response rating [11, 19]: 80
Plant response rating, Pigweed [12, 18]: 0
Pigweed plant response rating [12, 19]: 0
Plant response rating, Wheat [13, 18]: 50
Wheat plant response rating [13, 19]: 60
Plant response rating, Corn [14, 18]: 10
Corn plant response rating [14, 19]: 0
Plant response rating, Blackgrass [15, 18]: 10
Blackgrass plant response rating [15, 19]: 50
Plant response rating, Galium [16, 18]: 30
Galium plant response rating [16, 19]: 40

COC(=O)C1CCN(C(=O)c2cc(NS(=O)(=O)C(F)(F)F)c(C)cc2C)CC1 [Compound 50]
Plant response rating, Barnyardgrass ([1]; 1000 g ai/ha): 100
Plant response rating, Kochia ([2]; 1000 g ai/ha): 90
Plant response rating, Ragweed ([3]; 1000 g ai/ha): 80
Plant response rating, Ryegrass, Italian ([4]; 1000 g ai/ha): 70
Plant response rating, Foxtail, Giant ([5]; 1000 g ai/ha): 100
Plant response rating, Pigweed ([6]; 1000 g ai/ha): 100
Plant response rating, Barnyardgrass [7, 20]: 60
Plant response rating, Kochia [8, 20]: 60
Plant response rating, Ragweed [9, 20]: 50
Plant response rating, Ryegrass, Italian [10, 20]: 90
Plant response rating, Foxtail, Giant [11, 20]: 90
Plant response rating, Pigweed [12, 20]: 90
Plant response rating, Wheat [13, 20]: 50
Plant response rating, Corn [14, 20]: 10
Plant response rating, Blackgrass [15, 20]: 20
Plant response rating, Galium [16, 20]: 90
